# In US11020399B2, “Intermediates useful in the synthesis of compounds as modulators of protein kinases” (Rhizen Pharmaceuticals SA, priority 2011, dated 2021):
# Structures can show the parent of a compound that is named as a salt.
# How the values were obtained:
# PI3kδ = PI3kδ (Homo sapiens, UniProt O00329); test: Fluorescent (HTRF) determination of PI3 kinase enzyme activity, PI3Kδ; assay type: biochemical; conditions: for inhibition at 0.3 µM: 300 nM (Examples 1-59)
# Method in brief: (§1)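 Compounds tested at 1 μM on α and β isoforms and at 0.3 or 0.1 μM on γ and δ, with percent inhibition from blank and enzyme controls, plus IC50 fits. Room-temperature reaction: 10 min enzyme–compound preincubation in MgCl2/DTT buffer with 1.38 μM PIP2, then 30 min after 400 μM ATP addition; PIP3 read by HTRF (665/620 nm).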
# PI3kγ = PI3kγ (Homo sapiens, UniProt P48736); test: Fluorescent (HTRF) determination of PI3 kinase enzyme activity, PI3Kγ; assay type: biochemical; conditions: for % inhibition (PI3kγ) 100 nM / inhibition at 0.1 µM: 100 nM (Examples 60-137); for % inhibition (PI3kγ) 100 nM: 0.1 µM; for inhibition at 0.3 µM: 300 nM (Examples 1-59)
# Method in brief: as §1
# PI3kβ = PI3kβ (Homo sapiens, UniProt P42338); test: Fluorescent (HTRF) determination of PI3 kinase enzyme activity, PI3Kβ; assay type: biochemical; conditions: 1 uM
# Method in brief: as §1
# PI3kα = PI3kα (Homo sapiens, UniProt P42336); test: Fluorescent (HTRF) determination of PI3 kinase enzyme activity, PI3Kα; assay type: biochemical; conditions: 1 uM
# Method in brief: as §1
# PI3kγ, sequence (P48736 whole entry): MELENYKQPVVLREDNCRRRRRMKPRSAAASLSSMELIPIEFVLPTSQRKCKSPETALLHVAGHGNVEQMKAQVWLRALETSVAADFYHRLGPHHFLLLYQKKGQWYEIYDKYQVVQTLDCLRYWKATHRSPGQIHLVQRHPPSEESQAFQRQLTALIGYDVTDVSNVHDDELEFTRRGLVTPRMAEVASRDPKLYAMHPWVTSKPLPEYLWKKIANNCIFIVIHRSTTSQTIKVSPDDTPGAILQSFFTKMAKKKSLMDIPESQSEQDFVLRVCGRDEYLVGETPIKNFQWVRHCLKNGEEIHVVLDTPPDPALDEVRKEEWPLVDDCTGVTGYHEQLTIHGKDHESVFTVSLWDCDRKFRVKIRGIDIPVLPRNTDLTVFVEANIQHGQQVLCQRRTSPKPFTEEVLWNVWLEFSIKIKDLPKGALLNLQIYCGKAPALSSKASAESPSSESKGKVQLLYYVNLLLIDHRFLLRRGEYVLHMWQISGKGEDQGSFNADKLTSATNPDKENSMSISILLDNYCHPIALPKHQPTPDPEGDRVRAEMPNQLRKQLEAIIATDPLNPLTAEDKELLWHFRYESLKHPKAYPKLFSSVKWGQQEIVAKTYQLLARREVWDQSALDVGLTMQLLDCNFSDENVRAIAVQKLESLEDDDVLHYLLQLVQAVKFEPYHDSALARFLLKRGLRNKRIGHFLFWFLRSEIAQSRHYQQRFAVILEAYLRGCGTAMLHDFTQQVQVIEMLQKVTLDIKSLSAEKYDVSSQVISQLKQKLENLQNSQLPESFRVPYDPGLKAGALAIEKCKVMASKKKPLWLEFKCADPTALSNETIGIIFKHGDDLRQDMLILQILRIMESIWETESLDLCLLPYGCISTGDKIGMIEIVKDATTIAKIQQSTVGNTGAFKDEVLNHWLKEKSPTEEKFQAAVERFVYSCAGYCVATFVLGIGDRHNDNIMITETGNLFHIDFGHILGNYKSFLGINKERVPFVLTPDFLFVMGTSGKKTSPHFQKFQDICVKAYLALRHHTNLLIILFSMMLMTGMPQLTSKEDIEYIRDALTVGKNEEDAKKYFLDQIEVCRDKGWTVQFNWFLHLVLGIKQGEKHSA
# PI3kδ, sequence (O00329 whole entry, canonical isoform): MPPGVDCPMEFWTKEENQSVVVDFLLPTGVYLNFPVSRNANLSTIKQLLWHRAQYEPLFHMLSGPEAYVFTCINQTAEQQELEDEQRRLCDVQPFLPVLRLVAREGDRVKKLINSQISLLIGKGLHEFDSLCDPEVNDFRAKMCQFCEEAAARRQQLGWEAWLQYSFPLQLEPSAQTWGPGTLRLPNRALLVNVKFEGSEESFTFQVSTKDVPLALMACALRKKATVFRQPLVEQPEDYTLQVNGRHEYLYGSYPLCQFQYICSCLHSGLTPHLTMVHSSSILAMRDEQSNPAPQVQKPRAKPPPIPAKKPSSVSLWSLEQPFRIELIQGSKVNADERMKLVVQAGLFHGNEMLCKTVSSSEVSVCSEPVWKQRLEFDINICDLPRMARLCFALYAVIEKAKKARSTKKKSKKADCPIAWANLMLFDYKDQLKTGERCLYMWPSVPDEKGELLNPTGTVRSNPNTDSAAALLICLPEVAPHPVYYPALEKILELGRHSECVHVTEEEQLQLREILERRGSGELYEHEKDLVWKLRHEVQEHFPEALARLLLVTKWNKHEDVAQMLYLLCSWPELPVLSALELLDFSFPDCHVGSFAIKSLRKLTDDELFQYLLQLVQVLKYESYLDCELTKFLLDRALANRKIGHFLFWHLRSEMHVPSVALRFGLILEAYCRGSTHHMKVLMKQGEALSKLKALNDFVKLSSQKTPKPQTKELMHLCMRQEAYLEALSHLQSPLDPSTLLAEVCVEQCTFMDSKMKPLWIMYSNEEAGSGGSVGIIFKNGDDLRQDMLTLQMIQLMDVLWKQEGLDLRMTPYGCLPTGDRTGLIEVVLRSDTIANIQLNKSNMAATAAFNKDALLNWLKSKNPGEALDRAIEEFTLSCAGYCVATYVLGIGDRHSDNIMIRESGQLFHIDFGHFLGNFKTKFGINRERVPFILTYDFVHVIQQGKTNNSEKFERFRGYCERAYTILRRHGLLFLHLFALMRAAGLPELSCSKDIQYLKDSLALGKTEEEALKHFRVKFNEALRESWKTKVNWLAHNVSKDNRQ
# PI3kδ, sequence (P27986 whole entry partner, canonical isoform): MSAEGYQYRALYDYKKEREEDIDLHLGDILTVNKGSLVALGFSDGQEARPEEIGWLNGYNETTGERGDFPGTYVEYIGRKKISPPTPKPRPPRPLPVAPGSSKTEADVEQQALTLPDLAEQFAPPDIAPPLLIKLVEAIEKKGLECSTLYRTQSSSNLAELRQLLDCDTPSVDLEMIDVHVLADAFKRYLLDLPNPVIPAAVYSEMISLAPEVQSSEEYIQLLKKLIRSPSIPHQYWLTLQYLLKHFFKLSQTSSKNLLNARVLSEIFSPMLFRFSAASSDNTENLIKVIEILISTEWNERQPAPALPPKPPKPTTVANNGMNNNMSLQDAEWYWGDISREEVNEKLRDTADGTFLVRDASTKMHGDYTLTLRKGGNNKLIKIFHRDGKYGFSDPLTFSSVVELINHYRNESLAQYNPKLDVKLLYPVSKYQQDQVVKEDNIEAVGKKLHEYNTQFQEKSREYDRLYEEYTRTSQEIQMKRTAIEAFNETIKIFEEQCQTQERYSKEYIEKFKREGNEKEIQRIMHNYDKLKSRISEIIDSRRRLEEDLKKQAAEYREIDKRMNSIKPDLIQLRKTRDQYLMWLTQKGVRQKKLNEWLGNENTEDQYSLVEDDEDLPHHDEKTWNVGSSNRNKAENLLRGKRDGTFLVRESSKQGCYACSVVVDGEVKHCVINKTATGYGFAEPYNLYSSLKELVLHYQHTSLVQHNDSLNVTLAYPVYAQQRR
# PI3kα, sequence (P42336 whole entry): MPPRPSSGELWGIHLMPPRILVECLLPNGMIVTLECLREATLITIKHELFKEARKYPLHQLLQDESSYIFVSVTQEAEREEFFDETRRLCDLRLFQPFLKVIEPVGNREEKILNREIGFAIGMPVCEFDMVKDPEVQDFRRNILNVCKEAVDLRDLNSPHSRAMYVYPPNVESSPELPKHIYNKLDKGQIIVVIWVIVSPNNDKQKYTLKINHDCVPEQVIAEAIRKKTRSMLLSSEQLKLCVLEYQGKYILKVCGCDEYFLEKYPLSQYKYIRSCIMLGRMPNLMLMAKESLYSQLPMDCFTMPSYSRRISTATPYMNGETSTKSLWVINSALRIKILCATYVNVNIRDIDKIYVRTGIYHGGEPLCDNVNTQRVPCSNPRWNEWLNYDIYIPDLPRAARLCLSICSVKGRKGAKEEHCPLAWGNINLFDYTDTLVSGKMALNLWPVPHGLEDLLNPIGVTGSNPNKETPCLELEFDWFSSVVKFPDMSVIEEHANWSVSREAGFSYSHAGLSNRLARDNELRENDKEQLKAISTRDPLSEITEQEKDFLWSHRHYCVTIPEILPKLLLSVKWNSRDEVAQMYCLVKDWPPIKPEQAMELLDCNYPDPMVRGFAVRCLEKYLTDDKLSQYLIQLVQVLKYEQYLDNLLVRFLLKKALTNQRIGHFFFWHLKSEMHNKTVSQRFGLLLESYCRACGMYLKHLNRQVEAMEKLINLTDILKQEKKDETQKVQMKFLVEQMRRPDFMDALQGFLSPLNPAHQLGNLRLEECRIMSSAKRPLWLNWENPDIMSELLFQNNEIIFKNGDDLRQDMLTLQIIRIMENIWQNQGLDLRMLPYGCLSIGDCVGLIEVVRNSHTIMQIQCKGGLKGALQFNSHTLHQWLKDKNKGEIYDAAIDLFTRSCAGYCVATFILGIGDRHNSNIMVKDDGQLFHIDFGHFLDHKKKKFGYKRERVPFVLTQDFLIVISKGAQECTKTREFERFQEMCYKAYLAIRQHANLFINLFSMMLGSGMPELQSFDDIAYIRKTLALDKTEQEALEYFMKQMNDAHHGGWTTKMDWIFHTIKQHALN
# PI3kα, sequence (P27986 whole entry partner): as the sequence (P27986 whole entry partner, canonical isoform) above
# PI3kβ, sequence (P42338 whole entry): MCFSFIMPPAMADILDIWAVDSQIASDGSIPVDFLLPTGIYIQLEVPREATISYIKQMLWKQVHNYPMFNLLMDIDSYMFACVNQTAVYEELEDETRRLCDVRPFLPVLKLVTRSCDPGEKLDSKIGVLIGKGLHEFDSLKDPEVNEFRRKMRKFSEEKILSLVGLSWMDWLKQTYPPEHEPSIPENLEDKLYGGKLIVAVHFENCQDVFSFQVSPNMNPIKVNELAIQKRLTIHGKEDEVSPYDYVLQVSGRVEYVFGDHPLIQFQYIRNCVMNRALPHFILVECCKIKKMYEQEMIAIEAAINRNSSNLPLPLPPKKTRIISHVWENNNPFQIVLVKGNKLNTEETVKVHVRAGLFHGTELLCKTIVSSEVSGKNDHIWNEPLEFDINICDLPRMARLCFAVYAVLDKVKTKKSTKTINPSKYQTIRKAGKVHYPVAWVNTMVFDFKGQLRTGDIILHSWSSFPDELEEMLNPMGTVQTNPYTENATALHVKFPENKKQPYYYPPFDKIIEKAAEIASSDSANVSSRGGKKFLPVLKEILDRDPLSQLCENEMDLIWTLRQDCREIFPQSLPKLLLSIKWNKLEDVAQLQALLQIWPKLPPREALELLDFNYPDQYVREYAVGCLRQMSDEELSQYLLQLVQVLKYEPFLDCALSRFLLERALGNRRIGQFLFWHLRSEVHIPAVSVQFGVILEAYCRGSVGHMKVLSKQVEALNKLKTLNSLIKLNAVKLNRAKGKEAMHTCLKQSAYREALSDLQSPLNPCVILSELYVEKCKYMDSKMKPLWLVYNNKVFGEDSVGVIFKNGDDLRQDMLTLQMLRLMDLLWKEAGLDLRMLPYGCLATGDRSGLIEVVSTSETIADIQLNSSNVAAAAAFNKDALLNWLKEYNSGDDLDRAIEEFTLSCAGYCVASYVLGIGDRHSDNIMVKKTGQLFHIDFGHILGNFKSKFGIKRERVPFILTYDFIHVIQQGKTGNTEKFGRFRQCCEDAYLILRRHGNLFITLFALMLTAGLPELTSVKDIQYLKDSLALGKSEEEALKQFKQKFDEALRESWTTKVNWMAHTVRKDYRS
# PI3kβ, sequence (P27986 whole entry partner): as the sequence (P27986 whole entry partner, canonical isoform) above
melting point [°C],inhibition at 0.1 µM (PI3kδ; 100 nM (Examples 60-137)) [%],inhibition at 0.1 µM (PI3kγ) [%],other results,SMILES
255 to 258,–,–,–,"CC(c1oc2cccc(F)c2c(=O)c1-c1cccc(F)c1)n1cnc2c(N)nc(F)nc21 (centres unmarked) (as salt: potassium) [Example 106, 2-(1-(6-amino-2-fluoro-9H-purin-9-yl)ethyl)-5-fluoro-3-(3-fluorophenyl)-4H-chromen-4-one]"
207 to 209,–,–,–,"CNc1ncnc2c1ncn2C(C)c1oc2cccc(F)c2c(=O)c1-c1cccc(F)c1 (centres unmarked) (as salt: potassium) [Example 111, 5-fluoro-3-(3-fluorophenyl)-2-(1-(6-(methylamino)-9H-purin-9-yl)ethyl)-4H-chromen-4-one]"
239 to 241,–,–,–,"CC(c1oc2cccc(F)c2c(=O)c1-c1cccc(F)c1)n1cnc2c(N3CCOCC3)ncnc21 (centres unmarked) (as salt: potassium) [Example 119, 5-fluoro-3-(3-fluorophenyl)-2-(1-(6-morpholino-9H-purin-9-yl)ethyl)-4H-chromen-4-one]"
185 to 188,–,–,–,"Cc1cc(-c2nn(C(C)c3oc4cccc(F)c4c(=O)c3-c3cccc(F)c3)c3ncnc(N)c23)ccc1OC(C)C (centres unmarked) (as salt: sodium) [Example 50, 2-(1-(4-amino-3-(4-isopropoxy-3-methylphenyl)-1H-pyrazolo[3,4-d]pyrimidin-1-yl)ethyl)-5-fluoro-3-(3-fluorophenyl)-4H-chromen-4-one]"
136 to 138,–,–,"% inhibition (PI3kδ) 100 nM (PI3kδ; 100 nM (Examples 60-137), 0.1 µM): D (D=0 to 25%); % inhibition (PI3kγ) 100 nM (PI3kγ): D (D=0 to 25%)","CC(C)Oc1ccc(-c2nn(C(C)c3oc4cccc(F)c4c(=O)c3-c3cccc(F)c3)c3ncnc(N4CCOCC4)c23)cc1F (racemic) [Example 116, (S)/(R)-5-fluoro-2-(1-(3-(3-fluoro-4-isopropoxyphenyl)-4-morpholino-1H-pyrazolo[3,4-d]pyrimidin-1-yl)ethyl)-3-(3-fluorophenyl)-4H-chromen-4-one]"
183 to 186,25 to 50,25 to 50,–,"C[C@H](Nc1nc(F)nc2[nH]cnc12)c1oc2cccc(F)c2c(=O)c1-c1cccc(F)c1 (racemic) [Example 136, (S)/(R)-5-fluoro-2-(1-(2-fluoro-9H-purin-6-ylamino)ethyl)-3-(3-fluorophenyl)-4H-chromen-4-one]"
186 to 189,25 to 50,0 to 25,–,"COc1nc(N[C@@H](C)c2oc3cccc(F)c3c(=O)c2-c2cccc(F)c2)c2nc[nH]c2n1 (single isomer, unassigned) [Example 134]"
219 to 222,25 to 50,25 to 50,–,"COc1nc(N[C@H](C)c2oc3cccc(F)c3c(=O)c2-c2cccc(F)c2)c2nc[nH]c2n1 (single isomer, unassigned) [Example 135]"
198 to 201,–,–,–,"C[C@H](c1oc2cccc(F)c2c(=O)c1-c1cccc(F)c1)n1ncc2c(N)ncnc21 [Example 16b, (−)-2-(1-(4-amino-1H-pyrazolo[3,4-d]pyrimidin-1-yl)ethyl)-5-fluoro-3-(3-fluorophenyl)-4H-chromen-4-one]"
247 to 249,–,–,inhibition at 0.3 µM (PI3kδ): 50 to 75%; inhibition at 0.3 µM (PI3kγ): 25 to 50%,"CC(c1oc2cccc(F)c2c(=O)c1-c1cccc(F)c1)n1nc(-c2ccc(OC(F)(F)F)c(F)c2)c2c(N)ncnc21 (centres unmarked) [Example 45, 2-(1-(4-amino-3-(3-fluoro-4-(trifluoromethoxy)phenyl)-1H-pyrazolo[3,4-d]pyrimidin-1-yl)ethyl)-5-fluoro-3-(3-fluorophenyl)-4H-chromen-4-one]"
203 to 205,–,–,inhibition at 0.3 µM (PI3kδ): 0 to 25%; inhibition at 0.3 µM (PI3kγ): 0 to 25%,"CC(c1oc2cccc(F)c2c(=O)c1-c1cccc(F)c1)n1nc(N2CCCC2)c2c(N)ncnc21 (centres unmarked) [Example 47, 2-(1-(4-amino-3-(pyrrolidin-1-yl)-1H-pyrazolo[3,4-d]pyrimidin-1-yl)ethyl)-5-fluoro-3-(3-fluorophenyl)-4H-chromen-4-one]"
228 to 230,–,–,inhibition at 0.3 µM (PI3kδ): 25 to 50%; inhibition at 0.3 µM (PI3kγ): 50 to 75%,"CC(c1oc2cccc(F)c2c(=O)c1-c1cccc(F)c1)n1nc(-c2ccc(C3=NCCCO3)cc2)c2c(N)ncnc21 (centres unmarked) [Example 51, 2-(1-(4-amino-3-(4-(5,6-dihydro-4H-1,3-oxazin-2-yl)phenyl)-1H-pyrazolo[3,4-d]pyrimidin-1-yl)ethyl)-5-fluoro-3-(3-fluorophenyl)-4H-chromen-4-one]"
254 to 257,–,–,inhibition at 0.3 µM (PI3kδ): 0 to 25%; inhibition at 0.3 µM (PI3kγ): 50 to 75%,"CC(C)NC(=O)c1ccc(-c2nn(C(C)c3oc4cccc(F)c4c(=O)c3-c3cccc(F)c3)c3ncnc(N)c23)cc1F (centres unmarked) [Example 53, 4-(4-amino-1-(1-(5-fluoro-3-(3-fluorophenyl)-4-oxo-4H-chromen-2-yl)ethyl)-1H-pyrazolo[3,4-d]pyrimidin-3-yl)-2-fluoro-N-isopropylbenzamide]"
252 to 255,–,–,inhibition at 0.3 µM (PI3kδ): 25 to 50%; inhibition at 0.3 µM (PI3kγ): 50 to 75%,"CC(c1oc2cccc(F)c2c(=O)c1-c1cccc(F)c1)n1nc(-c2ccc(CNS(C)(=O)=O)cc2)c2c(N)ncnc21 (centres unmarked) [Example 55, N-(4-(4-amino-1-(1-(5-fluoro-3-(3-fluorophenyl)-4-oxo-4H-chromen-2-yl)ethyl)-1H-pyrazolo[3,4-d]pyrimidin-3-yl)benzyl)methanesulfonamide]"
225 to 228,–,–,inhibition at 0.3 µM (PI3kδ): 0 to 25%; inhibition at 0.3 µM (PI3kγ): 50 to 75%,"CC(c1oc2cccc(F)c2c(=O)c1-c1cccc(F)c1)n1nc(-c2ccc(S(=O)(=O)NC3CC3)cc2)c2c(N)ncnc21 (centres unmarked) [Example 57, 4-(4-amino-1-(1-(5-fluoro-3-(3-fluorophenyl)-4-oxo-4H-chromen-2-yl)ethyl)-1H-pyrazolo[3,4-d]pyrimidin-3-yl)-N-cyclopropylbenzenesulfonamide]"
232 to 235,0 to 25,25 to 50,–,"COc1c(C)cc(-c2nn(C(C)c3oc4cccc(F)c4c(=O)c3-c3cccc(F)c3)c3ncnc(N)c23)cc1C (centres unmarked) [Example 71, 2-(1-(4-amino-3-(4-methoxy-3,5-dimethylphenyl)-1H-pyrazolo[3,4-d]pyrimidin-1-yl)ethyl)-5-fluoro-3-(3-fluorophenyl)-4H-chromen-4-one]"
204 to 207,0 to 25,25 to 50,–,"COCc1ccc(-c2nn(C(C)c3oc4cccc(F)c4c(=O)c3-c3cccc(F)c3)c3ncnc(N)c23)cc1 (centres unmarked) [Example 72, 2-(1-(4-amino-3-(4-(methoxymethyl)phenyl)-1H-pyrazolo[3,4-d]pyrimidin-1-yl)ethyl)-5-fluoro-3-(3-fluorophenyl)-4H-chromen-4-one]"
317 to 320,25 to 50,25 to 50,–,"CC(c1oc2cccc(F)c2c(=O)c1-c1cccc(F)c1)n1nc(-c2ccc3nccn3c2)c2c(N)ncnc21 (centres unmarked) [Example 73, 2-(1-(4-amino-3-(imidazo[1,2-a]pyridin-6-yl)-1H-pyrazolo[3,4-d]pyrimidin-1-yl)ethyl)-5-fluoro-3-(3-fluorophenyl)-4H-chromen-4-one]"
252 to 255,25 to 50,0 to 25,–,"Cc1nc(C)c(-c2nn(C(C)c3oc4cccc(F)c4c(=O)c3-c3cccc(F)c3)c3ncnc(N)c23)s1 (centres unmarked) [Example 75, 2-(1-(4-amino-3-(2,4-dimethylthiazol-5-yl)-1H-pyrazolo[3,4-d]pyrimidin-1-yl)ethyl)-5-fluoro-3-(3-fluorophenyl)-4H-chromen-4-one]"
–,50 to 75,–,% inhibition (PI3kβ) 1 uM (PI3kβ): D (D=0 to 25%); IC50 (PI3kδ): ≤ 50 nM; % inhibition (PI3kα) 1 uM (PI3kα): C (C=>25 to 50%); IC50 (PI3kγ): 50 to 100 nM; % inhibition (PI3kγ) 100 nM (PI3kγ): B (B=>50 to 75%),"CC(c1oc2cccc(F)c2c(=O)c1-c1cccc(F)c1)n1nc(-c2ccc(N3CCOCC3)c(Cl)c2)c2c(N)ncnc21 (centres unmarked) [Example 113, 2-(1-(4-amino-3-(3-chloro-4-morpholinophenyl)-1H-pyrazolo[3,4-d]pyrimidin-1-yl)ethyl)-5-fluoro-3-(3-fluorophenyl)-4H-chromen-4-one]"
–,25 to 50,25 to 50,inhibition at 1 µM (PI3kβ): 0 to 25%; inhibition at 1 µM (PI3kα): 25 to 50%,"Cc1nc2ccc(-c3nn(C(C)c4oc5cccc(F)c5c(=O)c4-c4cccc(F)c4)c4ncnc(N)c34)cc2o1 (centres unmarked) [Example 118, 2-(1-(4-amino-3-(2-methylbenzo[d]oxazol-6-yl)-1H-pyrazolo[3,4-d]pyrimidin-1-yl)ethyl)-5-fluoro-3-(3-fluorophenyl)-4H-chromen-4-one]"
–,25 to 50,0 to 25,inhibition at 1 µM (PI3kβ): 0 to 25%; inhibition at 1 µM (PI3kα): 25 to 50%,"CC(=O)c1ccc(-c2nn(C(C)c3oc4cccc(F)c4c(=O)c3-c3cccc(F)c3)c3ncnc(N)c23)cc1F (centres unmarked) [Example 124, 2-(1-(3-(4-acetyl-3-fluorophenyl)-4-amino-1H-pyrazolo[3,4-d]pyrimidin-1-yl)ethyl)-5-fluoro-3-(3-fluorophenyl)-4H-chromen-4-one]"
–,50 to 75,25 to 50,inhibition at 1 µM (PI3kβ): 50 to 75%; IC50 (PI3kδ): 50 to 100 nM; inhibition at 1 µM (PI3kα): 25 to 50%; IC50 (PI3kγ): 50 to 100 nM,"CC(c1oc2cccc(F)c2c(=O)c1-c1cccc(F)c1)n1nc(-c2cccc(NS(C)(=O)=O)c2)c2c(N)ncnc21 (centres unmarked) [Example 128, N-(3-(4-amino-1-(1-(5-fluoro-3-(3-fluorophenyl)-4-oxo-4H-chromen-2-yl)ethyl)-1H-pyrazolo[3,4-d]pyrimidin-3-yl)phenyl)methanesulfonamide]"
275 to 277,–,–,–,"Cc1ccccc1-c1c(C(C)Nc2ncnc3[nH]cnc23)oc2cccc(F)c2c1=O (centres unmarked) [Example 138, 2-(1-(9H-purin-6-ylamino)ethyl)-5-fluoro-3-o-tolyl-4H-chromen-4-one]"
